Several values for one entry are separate records, joined by “and”; a condition that tells them apart may be missing. Equal values may be shown once. Inconclusive results and toxic doses are left out. Rule as the data show it: active = T/C of 150% or more; inactive = T/C below 125%.
Test system: L1210 leukemia ip in BDF1 mice, survival T/C
Assay: NCI In Vivo Anticancer Drug Screen. Data for tumor model L1210 Leukemia (intraperitoneal) in B6D2F1 (BDF1) mice
Details: endpoint: mean survival time, higher = longer survival
In short: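 In this screen, tumor-bearing mice given compound are compared to those given vehicle, and their survival values are reported as a treated-to-control quotient.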

[1] = dose: 100.0 mg/kg/injection, schedule: Q01DX001 (ip), vehicle: saline
[2] = dose: 200.0 mg/kg/injection, schedule: Q01DX001 (ip), vehicle: saline
[3] = dose: 400.0 mg/kg/injection, schedule: Q01DX001 (ip), vehicle: saline
[4] = dose: 100.0 mg/kg/injection, schedule: Q04DX003 (ip), vehicle: saline
[5] = dose: 200.0 mg/kg/injection, schedule: Q04DX003 (ip), vehicle: saline
[6] = dose: 400.0 mg/kg/injection, schedule: Q04DX003 (ip), vehicle: saline
[7] = dose: 100.0 mg/kg/injection, schedule: Q01DX001 (ip), vehicle: Klucel (hydroxypropylcellulose) (HPC)
[8] = dose: 100.0 mg/kg/injection, schedule: Q01DX009 (ip), vehicle: Klucel (hydroxypropylcellulose) (HPC)
[9] = dose: 100.0 mg/kg/injection, schedule: Q04DX003 (ip), vehicle: Klucel (hydroxypropylcellulose) (HPC)
[10] = dose: 200.0 mg/kg/injection, schedule: Q01DX001 (ip), vehicle: Klucel (hydroxypropylcellulose) (HPC)
[11] = dose: 200.0 mg/kg/injection, schedule: Q01DX009 (ip), vehicle: Klucel (hydroxypropylcellulose) (HPC)
[12] = dose: 200.0 mg/kg/injection, schedule: Q04DX003 (ip), vehicle: Klucel (hydroxypropylcellulose) (HPC)
[13] = dose: 400.0 mg/kg/injection, schedule: Q01DX001 (ip), vehicle: Klucel (hydroxypropylcellulose) (HPC)
[14] = dose: 400.0 mg/kg/injection, schedule: Q01DX009 (ip), vehicle: Klucel (hydroxypropylcellulose) (HPC)
[15] = dose: 400.0 mg/kg/injection, schedule: Q04DX003 (ip), vehicle: Klucel (hydroxypropylcellulose) (HPC)
[16] = dose: 100.0 mg/kg/injection, schedule: Q01DX001 (ip), vehicle: carboxymethylcellulose (CMC)
[17] = dose: 200.0 mg/kg/injection, schedule: Q01DX001 (ip), vehicle: carboxymethylcellulose (CMC)
[18] = dose: 400.0 mg/kg/injection, schedule: Q01DX001 (ip), vehicle: carboxymethylcellulose (CMC)

Measured: T/C

CC(C)C(=O)[O][Sn]([CH3])([CH3])[CH3]
inactive: dose: 0.19 mg/kg/injection, schedule: Q01DX009 (ip), vehicle: Klucel (hydroxypropylcellulose) (HPC) 90 % of control | dose: 0.39 mg/kg/injection, schedule: Q01DX009 (ip), vehicle: Klucel (hydroxypropylcellulose) (HPC) 95 % of control | dose: 0.78 mg/kg/injection, schedule: Q01DX009 (ip), vehicle: Klucel (hydroxypropylcellulose) (HPC) 93 % of control and 106 % of control | dose: 0.78 mg/kg/injection, schedule: Q04DX002 (ip), vehicle: Klucel (hydroxypropylcellulose) (HPC) 95 % of control | dose: 1.56 mg/kg/injection, schedule: Q04DX002 (ip), vehicle: Klucel (hydroxypropylcellulose) (HPC) 100 % of control | dose: 3.12 mg/kg/injection, schedule: Q04DX002 (ip), vehicle: Klucel (hydroxypropylcellulose) (HPC) 103 % of control

CC1=NN(c2ccccc2)C(=O)C1
inactive: dose: 50.0 mg/kg/injection, schedule: Q01DX001 (ip), vehicle: saline 94 % of control | dose: 100.0 mg/kg/injection, schedule: Q01DX001 (ip), vehicle: saline with Tween-80 104 % of control | [1] 94 % of control | dose: 200.0 mg/kg/injection, schedule: Q01DX001 (ip), vehicle: saline with Tween-80 101 % of control | [2] 90 % of control | dose: 400.0 mg/kg/injection, schedule: Q01DX001 (ip), vehicle: saline with Tween-80 101 % of control | [3] 102 % of control

CC1=CC(=O)C=C(C(C)C)/C1=C(\c1ccccc1C(=O)O)c1c(C)cc(OP(=O)(O)O)cc1C(C)C
inactive: dose: 100.0 mg/kg/injection, schedule: Q01DX009 (ip), vehicle: saline 103 % of control | [4] 106 % of control | dose: 200.0 mg/kg/injection, schedule: Q01DX009 (ip), vehicle: saline 102 % of control | [5] 97 % of control | dose: 400.0 mg/kg/injection, schedule: Q01DX009 (ip), vehicle: saline 100 % of control | [6] 98 % of control

O=C(Nc1ccc([N+](=O)[O-])cn1)Nc1ccccc1F
inactive: [7] 92 % of control | [8] 101 % of control and 90 % of control | [9] 99 % of control | [10] 89 % of control | [11] 100 % of control and 87 % of control | [12] 105 % of control | [13] 92 % of control | [14] 101 % of control and 90 % of control | [15] 99 % of control

O=c1[nH]c(C(F)(F)F)c(CCCCc2ccccc2)c(=O)[nH]1
inactive: dose: 50.0 mg/kg/injection, schedule: Q01DX001 (ip), vehicle: Klucel (hydroxypropylcellulose) (HPC) 105 % of control | [7] 94 % of control | [10] 90 % of control

CCOP(=O)(OCC)N1C(=O)CCC1=O
inactive: dose: 6.25 mg/kg/injection, schedule: Q04DX003 (ip), vehicle: saline 105 % of control | dose: 12.5 mg/kg/injection, schedule: Q04DX003 (ip), vehicle: saline 100 % of control | dose: 13.75 mg/kg/injection, schedule: Q01DX009 (ip), vehicle: saline 88 % of control | dose: 25.0 mg/kg/injection, schedule: Q04DX003 (ip), vehicle: saline 103 % of control | dose: 27.5 mg/kg/injection, schedule: Q01DX009 (ip), vehicle: saline 94 % of control | dose: 35.0 mg/kg/injection, schedule: Q04DX003 (ip), vehicle: saline 102 % of control | dose: 55.0 mg/kg/injection, schedule: Q04DX003 (ip), vehicle: saline 101 % of control

CC(=O)NS(=O)(=O)CCCC[n+]1c(C)oc2ccc(-c3ccccc3)cc21
inactive: dose: 100.0 mg/kg/injection, schedule: Q04DX003 (sc), vehicle: olive oil, sesame oil, peanut oil 98 % of control | dose: 200.0 mg/kg/injection, schedule: Q04DX003 (sc), vehicle: olive oil, sesame oil, peanut oil 100 % of control | dose: 400.0 mg/kg/injection, schedule: Q04DX003 (sc), vehicle: olive oil, sesame oil, peanut oil 100 % of control

Nc1cc2c(cc1[N+](=O)[O-])-c1ccc([N+](=O)[O-])cc1C2=O
inactive: dose: 50.0 mg/kg/injection, schedule: Q01DX001 (ip), vehicle: carboxymethylcellulose (CMC) 98 % of control | [16] 113 % of control | [17] 98 % of control | [18] 109 % of control

O=C(O)C1CCCC2C(O)CCC(O)C12 (configuration not stated)
inactive: [1] 107 % of control | [4] 105 % of control | [2] 93 % of control | [5] 111 % of control | [3] 91 % of control | [6] 105 % of control

CC1N=C(c2ccc(N)cc2)OC1C (configuration not stated)
inactive: [7] 102 % of control | [10] 98 % of control | [13] 100 % of control

Oc1ccc(N=Cc2ccccn2)cc1
inactive: [16] 96 % of control | [17] 105 % of control | [18] 98 % of control

O=C1c2ccccc2C(=O)N1CNc1ccccc1S
inactive: [8] 100 % of control | [11] 104 % of control | [14] 109 % of control

CC1=Nc2cc(C)c(C)cc2N=C(C)C1
inactive: [8] 96 % of control | [9] 93 % of control | [11] 98 % of control | [12] 97 % of control

CC1(C)OC(=O)C(C(N)=O)C1c1ccc(Cl)cc1 (configuration not stated)
inactive: [1] 103 % of control | [2] 104 % of control | [3] 103 % of control

Cc1ccc(C2Nc3ccccc3S(=O)(=O)C2c2ccccc2)cc1 (configuration not stated)
inactive: [7] 95 % of control | [10] 106 % of control | [13] 101 % of control

COc1ccc(N)c(CC2c3ccccc3CCN2C)c1 (configuration not stated)
inactive: dose: 10.0 mg/kg/injection, schedule: Q01DX001 (ip), vehicle: carboxymethylcellulose (CMC) 103 % of control | dose: 20.0 mg/kg/injection, schedule: Q01DX001 (ip), vehicle: carboxymethylcellulose (CMC) 105 % of control | dose: 40.0 mg/kg/injection, schedule: Q01DX001 (ip), vehicle: carboxymethylcellulose (CMC) 105 % of control | dose: 80.0 mg/kg/injection, schedule: Q01DX001 (ip), vehicle: carboxymethylcellulose (CMC) 100 % of control | [16] 96 % of control

CCOC(=O)C1CC1Cc1ccccc1 (configuration not stated)
inactive: dose: 100.0 mg/kg/injection, schedule: Q01DX009 (ip), vehicle: saline with Tween-80 101 % of control | [4] 100 % of control | dose: 200.0 mg/kg/injection, schedule: Q01DX009 (ip), vehicle: saline with Tween-80 102 % of control | [5] 105 % of control | dose: 400.0 mg/kg/injection, schedule: Q01DX009 (ip), vehicle: saline with Tween-80 104 % of control | [6] 94 % of control

Nc1ccccc1C(=O)OCCc1ccccc1
inactive: [8] 93 % of control | [9] 94 % of control | [11] 93 % of control | [12] 95 % of control | [14] 95 % of control | [15] 92 % of control
